System: T1, AChE (honeybee gut lysate)
T1 construct: gene AChE-1; total AChE activity
Assay: Ellman assay, […] nm, Hill fit
Assay type: biochemical, Apis mellifera mellifera
Details: gut homogenate; […] min incubation; […] acetylthiocholine iodide, […] DTNB; PBS

`COc1cc2c(cc1OC)C(=O)C(CC1CCN(Cc3ccccc3)CC1)C2` (stereo not shown) [Donepezil] was tested. Which IC50 did it give?
The IC50 was 115 ± 5.86 nM.

Reference: PMC3564010, “Exposure to Acetylcholinesterase Inhibitors Alters the Physiology and Motor Function of Honeybees” (Frontiers in Physiology, 2013)
